We go through 7 compounds from patent US12303898B2, “Microfluidic devices and methods of use” (The Governing Council of the University of Toronto, priority 2018, dated 2025).

Series [1] deals with QPCTL target loci. As to the kind of experiment: CRISPR editing analysis (TIDE / ICE) of double-sgRNA infected samples, QPCTL target loci. To be noted: two independent experiments; for mean percent edited: TIDE. In kind it is cell-based, human. The protocol:
Generation of CD47, QPCT and QPCTL knock-out cells. For transduction experiments using cell pools, single-stranded sgRNA oligos were annealed using T4 PNK in T4 ligation buffer (both NEB), and ligated into digested (BsmBI; NEB), phosphatase-treated (rSAP or CIP, NEB) and gel-purified modified pLCKO (for HAP1-Cas9) or pLCV2 (for HAP1, 293T and KMS11) backbones^24,25 using T4 DNA ligase. All plasmids were Sanger sequence verified and virus was prepared and titered as described above. HAP1, HAP1-Cas9 cells, 293T cells or KMS11 cells were infected with target and control gRNAs (MOI<1) in presence of 8 μg/ml polybrene. 24 h post infection, the medium was replaced with fresh medium containing puromycin (1 ug/ml for HAP1 and HAP1-Cas9, 1-2 ug/ml for 293T, 0.5 ug/ml for KMS11) and cells were incubated for 48 h. Cells were further cultured in selection-free medium as indicated for individual experiments (typically T3-T6), and passaged every 3-4 days. […] For infections with two sgRNAs (HAP1-Cas9 only), the second sgRNA was cloned into pLCKO hygro. Selection was carried out in puromycin (1 ug/ml) and hygromycin (800 ug/ml)-containing medium for the first 48 h, then in hygromycin-only medium for further 4-5 days. […] Single-cell colonies were expanded, cryo-banked (in standard medium with 10% DMSO and a total of 20% FBS) and analyzed for mutations as described below. […]
CRISPR editing analysis. For analysing indels after CRISPR-mediated editing, genomic DNA was isolated using the QIAamp DNA Blood Mini kit (Qiagen) or the Extracta DNA Prep kit (Quantabio). sgRNA target regions (100-200 bp up- and 500 bp downstream of sgRNA sequence) were amplified by touchdown PCR (−0.5° C./cycle from 72° C. to 60° C. plus 10 additional cycles at 59° C.) from 50-100 ng input DNA, PCR products were purified using the PureLink Quick PCR purification kit (Invitrogen) if necessary and analyzed by Sanger sequencing. Sequences were analyzed to determine the percentage of edited sequences contained in the sample using TIDE^49 and a “KO-score” using ICE^50 (Synthego). […]

For series [2], the system named is CD47. As to the kind of experiment: Validation of CD47 sgRNA knock-out HAP1 cell lines by flow cytometry and microfluidic sorting. In kind it is cell-based, human. The following applies: HAP1 cells, CD47 gene (FIG. 11C). The text has this:
As shown in FIG. 11A-C, this included sorting the wildtype (WT) HAP1 cells at different flow rates to decide on the ideal operating conditions, assessing the sorting of HAP1 cells transduced with sgRNAs targeting the CD47 gene (which should result in a decrease in the number of CD47+ cells), and mixing WT and clone cells together, sorting them and recovering the initial ratios. Experimental parameters were designed to have the majority of WT HAP1s be sorted into the middle bin thus upregulation and downregulation of CD47 could be assessed. […]
MICS sorting. […] Cells were sorted by MICS at a concentration of ˜5×10^6 cells/ml in HBSS with 2% BSA; initial cell concentration was measured using a Countess Automated Cell Counter (Invitrogen). […] Sorted samples were collected in their respective syringes, and the volume of solution collected in each syringe was measured by weight. […] Each sample was then loaded onto a 10-chambered microscope slide (Quick Read 3805, Globe Scientific) and cells were counted under fluorescent excitation using a custom counting macro and a Nikon TI Eclipse microscope. Sort efficiency was calculated by dividing the number of cells collected in the medium and high outlets by the total number of cells collected (low, medium and high). […]

The test system of series [3] is QPCT target loci. As to the kind of experiment: CRISPR editing analysis (TIDE / ICE) of double-sgRNA infected samples, QPCT target loci. To be noted: two independent experiments; for KO-score: ICE; for mean percent edited: TIDE. In kind it is cell-based, human. The protocol: Generation of CD47, QPCT and QPCTL knock-out cells. For transduction experiments using cell pools, single-stranded sgRNA oligos were annealed using T4 PNK in T4 ligation buffer (both NEB), and ligated into digested (BsmBI; NEB), phosphatase-treated (rSAP or CIP, NEB) and gel-purified modified pLCKO (for HAP1-Cas9) or pLCV2 (for HAP1, 293T and KMS11) backbones^24,25 using T4 DNA ligase. All plasmids were Sanger sequence verified and virus was prepared and titered as described above. HAP1, HAP1-Cas9 cells, 293T cells or KMS11 cells were infected with target and control gRNAs (MOI<1) in presence of 8 μg/ml polybrene. 24 h post infection, the medium was replaced with fresh medium containing puromycin (1 ug/ml for HAP1 and HAP1-Cas9, 1-2 ug/ml for 293T, 0.5 ug/ml for KMS11) and cells were incubated for 48 h. Cells were further cultured in selection-free medium as indicated for individual experiments (typically T3-T6), and passaged every 3-4 days. […] For infections with two sgRNAs (HAP1-Cas9 only), the second sgRNA was cloned into pLCKO hygro. Selection was carried out in puromycin (1 ug/ml) and hygromycin (800 ug/ml)-containing medium for the first 48 h, then in hygromycin-only medium for further 4-5 days. For single-cell knock-out clones (HAP1 only), sgRNAs were cloned into modified PX459v2.0 (from Addgene #62988, 1 kb stuffer sequence added). HAP1 cells were transfected using Lipofectamine 3000 (3.75 μl and 2.3 μg plasmid per 6-well), selected with puromycin for 48 h as above and seeded in limiting dilutions (1 cell/100 μl/96-well) 3 days later. Single-cell colonies were expanded, cryo-banked (in standard medium with 10% DMSO and a total of 20% FBS) and analyzed for mutations as described below. An sgRNA targeting the AAVS1 locus was used as negative control.
CRISPR editing analysis. For analysing indels after CRISPR-mediated editing, genomic DNA was isolated using the QIAamp DNA Blood Mini kit (Qiagen) or the Extracta DNA Prep kit (Quantabio). sgRNA target regions (100-200 bp up- and 500 bp downstream of sgRNA sequence) were amplified by touchdown PCR (−0.5° C./cycle from 72° C. to 60° C. plus 10 additional cycles at 59° C.) from 50-100 ng input DNA, PCR products were purified using the PureLink Quick PCR purification kit (Invitrogen) if necessary and analyzed by Sanger sequencing. Sequences were analyzed to determine the percentage of edited sequences contained in the sample using TIDE^49 and a “KO-score” using ICE^50 (Synthego). Non-edited cells amplified with the same primers were used as control samples. A representative analysis of double-sgRNA infected samples from two independent experiments yielded the following editing results for QPCT and QPCTL target loci (by sgRNA; mean percent edited/KO-score±SD): QPCTL #1 58.2/NA±16.2/N, QPCTL #2 33.23/47±32.96/0, QPCT #1 33.15/56±36.51/0, QPCT #2 80.2/76.4±19.85/2.42, QPCT #3 68.18/36.33±4.29/2.08; AAVS1/CD47 #1 (background or off-target, mean±SD over all QPCT and QPCTL target loci) 14.4/1.33±14.95/0.58. For single-cell derived clones, TIDE and ICE were used for screening purposes, and mutations were independently confirmed by PCR, Sanger sequencing and sequence alignment as described.

In series [4] the target is T1, QPCTL (Homo sapiens, UniProt Q9NXS2).
T1 construct: endogenous in cells; host or cells: HAP1 cells (Horizon, clone C631)
As to the kind of experiment: Flow cytometry and immunofluorescence of CD47 antibody binding in HAP1 cells after QPCTL inhibitor treatment. The format is cell-based. To be noted: inhibitor treatment (FIG. 14B, 14D, 14E), CC2C6 detects pyro-Glu modified CD47.
Method: Flow cytometry. Cells were dissociated with 0.125% trypsin and washed once in once in Flow buffer (PBS with 2% BSA). For cell-surface analysis, antibody staining was carried out in Flow buffer for 30 min on ice at 4° C. in the dark. For intracellular antigens, cells were first fixed with 4% PFA (Electron Microscopy Sciences) in PBS for 10 min on ice, followed by permeabilization using Flow buffer with 0.1% TritonX-100 (Sigma) for 5 min at room temperature. Cells were washed twice with Flow buffer, followed by staining for 30 min on ice at 4° C. in the dark. Stained cells were washed thrice with Flow buffer and 7-AAD viability dye (3-5 μl, BioLegend) was added before quantification. […] Stained cells were quantified on an LSRII flow cytometer (BD Biosciences) or an iQue Screener PLUS (IntelliCyt), and data were analyzed using FlowJo software (RRID:SCR_008520). […]
Immunofluorescence microscopy. […] For mean fluorescence intensity (MFI) measurements, Membrite™ staining intensity was used for automated image segmentation (ImageJ custom macro, available upon request) for operator independent unbiased selection of primary regions of interest (ROI) masks (in the green channel) and the mean fluorescence intensity was measured from the APC and/or Alexa594 channel. […]

T1 sequence (Q9NXS2 whole entry): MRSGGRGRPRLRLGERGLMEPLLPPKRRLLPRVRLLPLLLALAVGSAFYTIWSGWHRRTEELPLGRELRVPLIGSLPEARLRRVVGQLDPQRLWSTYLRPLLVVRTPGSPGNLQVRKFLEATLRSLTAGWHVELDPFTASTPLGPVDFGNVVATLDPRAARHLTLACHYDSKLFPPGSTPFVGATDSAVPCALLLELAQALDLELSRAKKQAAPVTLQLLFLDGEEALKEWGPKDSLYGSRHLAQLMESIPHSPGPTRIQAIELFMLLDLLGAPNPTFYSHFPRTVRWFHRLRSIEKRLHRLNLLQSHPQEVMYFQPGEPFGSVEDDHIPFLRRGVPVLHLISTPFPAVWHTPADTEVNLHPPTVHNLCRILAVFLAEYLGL

As for “QPCTL #2: sgRNA from the TKOv3 library, sequence ACAGGGCACAGCCGAATCCG (chemistry not fully specified)”, the KO-score in series [1] (ICE) is recorded as 47. The compound further displayed a mean percent edited in series [1] of 33.23%. For the compound “Guide #4: sgRNA targeting CD47 from the TKOv3 library, sequence GAAGACTATACAACCTCCTA (chemistry not fully specified)”, the gene inactivation result in series [2] is “ineffective at gene inactivation”.

In series [3], “QPCT #1: sgRNA from the TKOv3 library, sequence TCAAGGATCACTCTTTGGAG (chemistry not fully specified)” registered a KO-score of 56 and a mean percent edited of 33.15%. The compound “QPCTL #1: sgRNA from the TKOv3 library, sequence GGGTTCGCACAACCAGCAGG (chemistry not fully specified)” gave a mean percent edited in series [1] of 58.2%.

On to “QPCT #2: sgRNA from the TKOv3 library, sequence AGAGGCACCAGCCAACTGCA (chemistry not fully specified)”, for which, in series [3], the KO-score is listed as 76.4 and the mean percent edited amounted to 80.2%. In the same order, the values of “QPCT #3: sgRNA from the TKOv3 library, sequence GACCAAATGTCGTTTAGCAG (chemistry not fully specified)” are 36.33 and 68.18%. Turning to `CCCOc1ccc([C@H]2CNC(=O)N2c2ccc3[nH]cnc3c2)cc1` [PQ912], the CC2C6 binding result in series [4] was “decreased”.
